Numbers after ± are expanded uncertainties.
Assay: xn = mol fraction of the nth substance listed
Conditions: Liquid

CCOS(=O)(=O)[O-].CCn1cc[n+](C)c1 [1-ethyl-3-methylimidazolium ethyl sulfate] + CO
mass density [kg/m3]
Conditions	100 kPa	2500 kPa	5000 kPa	10000 kPa	15000 kPa	20000 kPa	25000 kPa	30000 kPa	35000 kPa
283.15 K, x1 = 0.04781	895.14 ± 0.57	896.98 ± 0.6	898.83 ± 0.64	902.39 ± 0.71	905.85 ± 0.78	909.18 ± 0.85	912.41 ± 0.92	915.51 ± 0.98	918.59 ± 1
283.15 K, x1 = 0.1026	968.87 ± 0.48	970.47 ± 0.48	972.09 ± 0.49	975.24 ± 0.5	978.32 ± 0.5	981.31 ± 0.51	984.2 ± 0.51	987.02 ± 0.5	989.77 ± 0.54
283.15 K, x1 = 0.1977	1052.5 ± 0.52	1053.84 ± 0.54	1055.23 ± 0.56	1057.94 ± 0.6	1060.59 ± 0.66	1063.21 ± 0.72	1065.75 ± 0.79	1068.22 ± 0.87	1070.64 ± 0.95
283.15 K, x1 = 0.2432	1081.02 ± 0.55	1082.31 ± 0.58	1083.64 ± 0.61	1086.24 ± 0.69	1088.8 ± 0.77	1091.31 ± 0.87	1093.76 ± 0.97	1096.15 ± 1.1	1098.5 ± 1.2
283.15 K, x1 = 0.3026	1111.91 ± 0.59	1113.14 ± 0.64	1114.41 ± 0.68	1116.86 ± 0.79	1119.26 ± 0.91	1121.66 ± 1.1	1123.99 ± 1.2	1126.28 ± 1.4	1128.48 ± 1.5
283.15 K, x1 = 0.3887	1145.18 ± 0.64	1146.33 ± 0.7	1147.51 ± 0.77	1149.84 ± 0.92	1152.14 ± 1.1	1154.4 ± 1.3	1156.62 ± 1.5	1158.82 ± 1.7	1160.95 ± 1.9
283.15 K, x1 = 0.485	1173.12 ± 0.69	1174.24 ± 0.77	1175.35 ± 0.85	1177.57 ± 1	1179.75 ± 1.2	1181.92 ± 1.5	1184.04 ± 1.7	1186.14 ± 1.9	1188.17 ± 2.2
283.15 K, x1 = 0.589	1195.65 ± 0.73	1196.74 ± 0.81	1197.79 ± 0.91	1199.93 ± 1.1	1202.04 ± 1.4	1204.13 ± 1.6	1206.18 ± 1.9	1208.21 ± 2.1	1210.17 ± 2.4
283.15 K, x1 = 0.7289	1218.63 ± 0.77	1219.71 ± 0.87	1220.74 ± 0.97	1222.79 ± 1.2	1224.82 ± 1.5	1226.84 ± 1.8	1228.82 ± 2.1	1230.77 ± 2.4	1232.67 ± 2.6
283.15 K, x1 = 0.8521	1233.5 ± 0.8	1234.47 ± 0.9	1235.48 ± 1	1237.48 ± 1.3	1239.47 ± 1.6	1241.45 ± 1.9	1243.37 ± 2.2	1245.28 ± 2.5	1247.16 ± 2.8
283.15 K, x1 = 0.9397	1242.49 ± 0.82	1243.52 ± 0.93	1244.49 ± 1.1	1246.47 ± 1.4	1248.43 ± 1.6	1250.39 ± 2	1252.3 ± 2.3	1254.18 ± 2.6	1256.03 ± 2.9
293.15 K, x1 = 0.04781	886.34 ± 0.58	888.27 ± 0.62	890.2 ± 0.66	893.93 ± 0.74	897.52 ± 0.82	900.98 ± 0.9	904.34 ± 0.97	–	–
293.15 K, x1 = 0.1026	960.49 ± 0.49	962.13 ± 0.5	963.82 ± 0.5	967.09 ± 0.52	970.28 ± 0.53	973.36 ± 0.54	976.36 ± 0.54	–	–
293.15 K, x1 = 0.1977	1044.52 ± 0.51	1045.92 ± 0.52	1047.38 ± 0.54	1050.18 ± 0.58	1052.91 ± 0.63	1055.6 ± 0.68	1058.22 ± 0.75	–	–
293.15 K, x1 = 0.2432	1073.23 ± 0.54	1074.55 ± 0.56	1075.93 ± 0.59	1078.61 ± 0.66	1081.24 ± 0.74	1083.82 ± 0.83	1086.34 ± 0.92	–	–
293.15 K, x1 = 0.3026	1104.25 ± 0.58	1105.51 ± 0.62	1106.81 ± 0.67	1109.35 ± 0.77	1111.82 ± 0.88	1114.27 ± 1	1116.67 ± 1.1	–	–
293.15 K, x1 = 0.3887	1137.8 ± 0.63	1138.99 ± 0.69	1140.22 ± 0.75	1142.61 ± 0.89	1144.95 ± 1	1147.27 ± 1.2	1149.55 ± 1.4	–	–
293.15 K, x1 = 0.485	1165.78 ± 0.68	1166.91 ± 0.75	1168.06 ± 0.83	1170.35 ± 1	1172.59 ± 1.2	1174.79 ± 1.4	1176.97 ± 1.6	–	–
293.15 K, x1 = 0.589	1188.53 ± 0.71	1189.55 ± 0.8	1190.65 ± 0.89	1192.84 ± 1.1	1194.99 ± 1.3	1197.11 ± 1.6	1199.2 ± 1.8	–	–
293.15 K, x1 = 0.7289	1211.6 ± 0.75	1212.63 ± 0.85	1213.69 ± 0.95	1215.79 ± 1.2	1217.88 ± 1.5	1219.92 ± 1.7	–	–	–
293.15 K, x1 = 0.8521	1226.42 ± 0.78	1227.39 ± 0.89	1228.45 ± 1	1230.49 ± 1.3	1232.52 ± 1.6	1234.53 ± 1.8	–	–	–
293.15 K, x1 = 0.9397	1235.42 ± 0.8	1236.43 ± 0.91	1237.46 ± 1	1239.51 ± 1.3	1241.5 ± 1.6	1243.48 ± 1.9	–	–	–

Source: the NIST ThermoML archive (doi:10.1016/j.jct.2007.11.011)
